Laboratory results published in patent US12257233B2, “Methods” (Ethismos Research, Inc., priority 2018, dated 2025).

Key:
rats = experiment: Hot plate test of analgesia; type: in vivo, rat
Excerpt: The hot plate test assesses antinociception in rats and mice (see, e.g., Basile, A. et al., “Characterization of the Antinociceptive Actions of Bicifadine in Models of Acute, Persistent, and Chronic Pain,” The Journal of Pharmacology and Experimental Therapeutics, 2007, 321 (3), 1208-1225).

female rats = conditions: doses of 5 and 10 mg/kg; cited from earlier work
5-HT2c receptor = target: T1, 5-HT2c receptor (Homo sapiens, UniProt P28335); experiment: Functional activity at the 5-HT2c receptor; type: biochemical
T1 sequence (P28335 33-458): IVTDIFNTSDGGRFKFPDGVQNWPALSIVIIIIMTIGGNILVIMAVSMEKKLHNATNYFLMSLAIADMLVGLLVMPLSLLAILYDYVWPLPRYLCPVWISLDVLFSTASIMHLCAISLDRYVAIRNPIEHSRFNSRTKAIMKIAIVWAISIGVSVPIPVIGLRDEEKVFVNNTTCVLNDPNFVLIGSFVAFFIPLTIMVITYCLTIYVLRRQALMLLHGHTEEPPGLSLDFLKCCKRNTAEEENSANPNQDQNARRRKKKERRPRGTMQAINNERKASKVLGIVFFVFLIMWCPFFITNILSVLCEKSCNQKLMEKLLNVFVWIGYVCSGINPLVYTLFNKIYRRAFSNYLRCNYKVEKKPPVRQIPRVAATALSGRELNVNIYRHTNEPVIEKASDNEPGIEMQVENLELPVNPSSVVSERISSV
Excerpt: It has been proposed that serotonin exerts control of dopamine release in the ventral tegmental area via the 5-HT2c receptor. […] Opioid analgesic effects are manifested via the periaqueductal gray whereas reduction in self-administration results from a reduction in dopamine neurotransmission via 5-HT2c partial agonism in the ventral tegmental area.

[1] = system: patients with major depressive disorder; conditions: cited from earlier work
mouse = conditions: second phase (15-30 minutes); cited from earlier work

Row | Compound | antinociception in hot plate test, given alone (rats; amitifadine alone) | effect on the opioid's antinociception in hot plate test, in combination (rats; amitifadine in combination with an opioid) | food motivated responding (female rats) | activity at the 5-HT2c receptor (5-HT2c receptor) | antidepressant activity [1] | effectiveness compared with morphine in formalin paw lick test (mouse)
1 | Clc1ccc([C@]23CNC[C@H]2C3)cc1Cl [amitifadine, (1R,5S)-1-(3,4-dichlorophenyl)-3-azabicyclo[3.1.0]hexane] | antinociceptive | does not attenuate the opioid's antinociception, instead extending the opioid's antinociception | does not significantly affect | partial agonist | significant antidepressant activity | 
2 | Cl.Clc1ccc([C@]23CNC[C@H]2C3)cc1Cl [(1R,5S)-1-(3,4-dichlorophenyl)-3-azabicyclo[3.1.0]hexane hydrochloride] |  |  |  |  |  | as effective as morphine
